Our source for the IC50 values is patent US20260022122A1 (Checkmate Therapeutics Inc., priority 2022, published 2026).

Some results are limits rather than exact numbers.

The assay addresses NamPT (Homo sapiens (Human), UniProt P43490). The assay is described as follows: Measurement of NamPT inhibitory ability IC50 (NamPT colorimetric assay kit, Abcam ab221819). It counts as biochemical. The following applies: NamPT recombinant protein, WST-1 absorbance at 450 nm; class key in μM. The method, then: To test the effect of the compound prepared in each Example on the substrate decomposition rate (Vmax/min) mediated by NamPT enzyme, IC50 was calculated. In this experiment, the NamPT colorimetric assay kit (ab221819) produced by Abcam was used, and Graph prism software was used for IC50 calculation. PRPP, ATP, NMNAT1, NamPT recombinant proteins, and various concentrations of the compound of each Example (half-log step dilution from 100 μM) were added to nicotinamide to synthesize nicotinamide adenine dinucleotide (NAD) from the nicotinamide, and a total of 60 μL of the reaction solution was reacted at room temperature for 1 hour. WST-1 formazan converted by NAD generated by adding WST-1 was measured. The result of the reaction was obtained by the following formula by measuring absorbance using EnVision2105 (PerkinElmer) at 450 nm for 60 minutes at 2-minute intervals.
In Mathematical Formula 1, T1 and T2 are arbitrary times, and A1 and A2 represent the absorbance measured at T1 and T2 at 450 nm, respectively.
The results of measuring the NamPT inhibition activity of the compound of each Example obtained through the above experiment are shown in Table 1 in the unit of IC50 (nM), and the result values are expressed as follows.
(Tetrazolium dyes change colour on reduction, which living cells bring about.)

Sequence of NamPT (P43490 whole entry): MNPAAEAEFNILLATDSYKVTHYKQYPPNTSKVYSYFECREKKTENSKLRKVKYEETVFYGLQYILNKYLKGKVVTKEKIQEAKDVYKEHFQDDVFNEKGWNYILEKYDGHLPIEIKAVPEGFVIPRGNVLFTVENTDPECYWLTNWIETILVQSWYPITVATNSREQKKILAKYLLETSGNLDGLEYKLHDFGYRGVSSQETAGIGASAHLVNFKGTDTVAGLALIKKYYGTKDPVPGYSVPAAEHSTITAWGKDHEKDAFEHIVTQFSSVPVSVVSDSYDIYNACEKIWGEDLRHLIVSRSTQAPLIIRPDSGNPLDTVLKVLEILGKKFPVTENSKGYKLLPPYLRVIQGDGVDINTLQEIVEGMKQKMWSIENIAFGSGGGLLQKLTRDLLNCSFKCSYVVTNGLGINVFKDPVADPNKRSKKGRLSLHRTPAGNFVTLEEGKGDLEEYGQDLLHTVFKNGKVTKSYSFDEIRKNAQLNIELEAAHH

The IC50 is the point on the concentration scale where inhibition reaches its midpoint. As for `Cc1ccc2nc(-c3ccc(CNC(=O)c4cnc5nccn5c4)cc3)oc2c1` [Example 1, N-[[4-(6-methyl-1,3-benzoxazol-2-yl)phenyl]methyl]imidazo[1,2-a]pyrimidin-6-carboxamide], the IC50 is 0.051 to 0.1 µM.

Take `O=C(O)c1ccc2nc(-c3ccc(CNC(=O)c4cnc5nccn5c4)cc3)oc2c1` [Example 5, 2-[4-[(imidazo[1,2-a]pyrimidin-6-carbonylamino)methyl]phenyl]-1,3-benzoxazol-6-carboxylic acid]: the IC50 is 0.11 to 1 µM.

On to `COc1ccc2oc(-c3ccc(CNC(=O)c4cnc5nccn5c4)cc3)nc2c1` [Example 7, N-[[4-(5-methoxy-1,3-benzoxazol-2-yl)phenyl]methyl]imidazo[1,2-a]pyrimidin-6-carboxamide], for which the half-inhibitory concentration (IC50) was below 0.05 µM.

In the case of `Cc1ccc2nc(-c3ccc(CNC(=O)c4cnc5nccn5c4)cc3)sc2c1` [Example 8, N-[[4-(6-methyl-1,3-benzothiazol-2-yl)phenyl]methyl]imidazo[1,2-a]pyrimidin-6-carboxamide], the half-inhibitory concentration (IC50) is below 0.05 µM. Consider `CCS(=O)(=O)c1ccc2nc(-c3ccc(CNC(=O)c4cnc5nccn5c4)cc3)oc2c1` [Example 14, N-[[4-(6-ethylsulfonyl-1,3-benzoxazol-2-yl)phenyl]methyl]imidazo[1,2-a]pyrimidin-6-carboxamide], for which the half-maximal inhibitory concentration (IC50) is below 0.05 µM. `CCC(=O)Nc1ccc2oc(-c3ccc(CNC(=O)c4cnc5nccn5c4)cc3)nc2c1` [Example 15, N-[[4-[5-(propanoylamino)-1,3-benzoxazol-2-yl]phenyl]methyl]imidazo[1,2-a]pyrimidin-6-carboxamide]: the IC50 was 0.11 to 1 µM. As for `O=C(NCc1ccc(-c2nc3cc(Cl)ccc3o2)cc1)c1cnc2nccn2c1` [Example 16, N-[[4-(5-chloro-1,3-benzoxazol-2-yl)phenyl]methyl]imidazo[1,2-a]pyrimidin-6-carboxamide], the figure is below 0.05 µM; as for `O=C(NCc1ccc(-c2nc3cc(F)ccc3o2)cc1)c1cnc2nccn2c1` [Example 18, N-[[4-(5-fluoro-1,3-benzoxazol-2-yl)phenyl]methyl]imidazo[1,2-a]pyrimidin-6-carboxamide], 0.11 to 1 µM; as for `Cc1cccc2oc(-c3ccc(CNC(=O)c4cnc5nccn5c4)cc3)nc12` [Example 20, N-[[4-(4-methyl-1,3-benzoxazol-2-yl)phenyl]methyl]imidazo[1,2-a]pyrimidin-6-carboxamide], 0.11 to 1 µM. As for `Cc1cccc2nc(-c3ccc(CNC(=O)c4cnc5nccn5c4)cc3)oc12` [Example 21, N-[[4-(7-methyl-1,3-benzoxazol-2-yl)phenyl]methyl]imidazo[1,2-a]pyrimidin-6-carboxamide], the figure is 0.11 to 1 µM; as for `O=C(NCc1ccc(-c2nc3cc(O)ccc3o2)cc1)c1cnc2nccn2c1` [Example 23, N-[[4-(5-hydroxy-1,3-benzoxazol-2-yl)phenyl]methyl]imidazo[1,2-a]pyrimidin-6-carboxamide], below 0.05 µM; as for `Cc1ccc2nc(-c3ccc(CNC(=O)c4cnc5nccn5c4)cc3)oc2n1` [Example 24, N-[[4-(5-methyloxazolo[5,4-b]pyridin-2-yl)phenyl]methyl]imidazo[1,2-a]pyrimidin-6-carboxamide], below 0.05 µM. As for `O=C(NCc1ccc(-c2nc3cc(Oc4ccccn4)ccc3o2)cc1)c1cnc2nccn2c1` [Example 25, N-[[4-[5-(2-pyridyloxy)-1,3-benzoxazol-2-yl]phenyl]methyl]imidazo[1,2-a]pyrimidin-6-carboxamide], the IC50 is below 0.05 µM. Regarding `Nc1ccc2nc(-c3ccc(CNC(=O)c4cnc5nccn5c4)cc3)oc2c1` [Example 26, N-[[4-(6-amino-1,3-benzoxazol-2-yl)phenyl]methyl]imidazo[1,2-a]pyrimidin-6-carboxamide], the IC50 fell in the range of 0.051 to 0.1 µM. Turning to `O=C(NCc1ccc(-c2nc3cc(-c4cccnc4)ccc3o2)cc1)c1cnc2nccn2c1` [Example 27, N-[[4-[5-(3-pyridyl)-1,3-benzoxazol-2-yl]phenyl]methyl]imidazo[1,2-a]pyrimidin-6-carboxamide], the IC50 lay in the range of 0.051 to 0.1 µM. For the compound `Cc1ccc2nc(-c3ccc(CNC(=O)c4cnc5nccn5c4)nc3)oc2c1` [Example 28, N-[[5-(6-methyl-1,3-benzoxazol-2-yl)-2-pyridyl]methyl]imidazo[1,2-a]pyrimidin-6-carboxamide], the half-maximal inhibitory concentration (IC50) was 0.11 to 1 µM. With `CCOC(=O)c1ccc2oc(-c3ccc(CNC(=O)c4cnc5nccn5c4)cc3)nc2c1` [Example 29, ethyl 2-[4-[(imidazo[1,2-a]pyrimidin-6-carbonylamino)methyl]phenyl]-1,3-benzoxazol-5-carboxylate], the half-maximal inhibitory concentration (IC50) is below 0.05 µM. For `O=C(NCc1ccc(-c2nc3cc(CO)ccc3o2)cc1)c1cnc2nccn2c1` [Example 30, N-[[4-[5-(hydroxymethyl)-1,3-benzoxazol-2-yl]phenyl]methyl]imidazo[1,2-a]pyrimidin-6-carboxamide], the IC50 was below 0.05 µM. Take `Cc1ccc2nc(-c3ccc(CNC(=O)c4cnc5nccn5c4)c(F)c3)oc2c1` [Example 35, N-[[2-fluoro-4-(6-methyl-1,3-benzoxazol-2-yl)phenyl]methyl]imidazo[1,2-a]pyrimidin-6-carboxamide]: the IC50 was below 0.05 µM. Regarding `O=C(NCc1ccc(-c2nc3cnccc3o2)cc1)c1cnc2nccn2c1` [Example 36, N-[(4-oxazolo[4,5-c]pyridin-2-ylphenyl)methyl]imidazo[1,2-a]pyrimidin-6-carboxamide], the 50% inhibitory concentration (IC50) fell in the range of 0.11 to 1 µM. For the compound `CCS(=O)(=O)c1ccc2oc(-c3ccc(CNC(=O)c4cnc5nccn5c4)cc3)nc2c1` [Example 37, N-[[4-(5-ethylsulfonyl-1,3-benzoxazol-2-yl)phenyl]methyl]imidazo[1,2-a]pyrimidin-6-carboxamide], the IC50 fell in the range of 0.11 to 1 µM.

In the case of `O=C(NCc1ccc(-c2nc3cc(F)c(F)cc3o2)cc1)c1cnc2nccn2c1` [Example 39, N-[[4-(5,6-difluoro-1,3-benzoxazol-2-yl)phenyl]methyl]imidazo[1,2-a]pyrimidin-6-carboxamide], the IC50 is below 0.05 µM.

Take `O=C(NCc1ccc(-c2nc3c(F)cc(F)cc3o2)cc1)c1cnc2nccn2c1` [Example 40, N-[[4-(4,6-difluoro-1,3-benzoxazol-2-yl)phenyl]methyl]imidazo[1,2-a]pyrimidin-6-carboxamide]: the IC50 was below 0.05 µM. In the case of `O=C(NCc1ccc(-c2nc3cc(C(F)(F)F)c(Cl)cc3o2)cc1)c1cnc2nccn2c1` [Example 41, N-[[4-[6-chloro-5-(trifluoromethyl)-1,3-benzoxazol-2-yl]phenyl]methyl]imidazo[1,2-a]pyrimidin-6-carboxamide], the IC50 was below 0.05 µM. The result for `O=C(NCc1ccc(-c2nc3cc(Cl)c(C(F)(F)F)cc3o2)cc1)c1cnc2nccn2c1` [Example 42, N-[[4-[5-chloro-6-(trifluoromethyl)-1,3-benzoxazol-2-yl]phenyl]methyl]imidazo[1,2-a]pyrimidin-6-carboxamide] reads below 0.05 µM; that for `COc1cc2nc(-c3ccc(CNC(=O)c4cnc5nccn5c4)cc3)oc2cc1C` [Example 43, N-[[4-(5-methoxy-6-methyl-1,3-benzoxazol-2-yl)phenyl]methyl]imidazo[1,2-a]pyrimidin-6-carboxamide], below 0.05 µM; that for `CCc1ccc2oc(-c3ccc(CNC(=O)c4cnc5nccn5c4)cc3)nc2c1` [Example 44, N-[[4-(5-ethyl-1,3-benzoxazol-2-yl)phenyl]methyl]imidazo[1,2-a]pyrimidin-6-carboxamide], below 0.05 µM.

As to `CCc1ccc2nc(-c3ccc(CNC(=O)c4cnc5nccn5c4)cc3)oc2c1` [Example 45, N-[[4-(6-ethyl-1,3-benzoxazol-2-yl)phenyl]methyl]imidazo[1,2-a]pyrimidin-6-carboxamide], the IC50 is below 0.05 µM. As for `Nc1ccc2oc(-c3ccc(CNC(=O)c4cnc5nccn5c4)cc3)nc2c1` [Example 46, N-[[4-(5-amino-1,3-benzoxazol-2-yl)phenyl]methyl]imidazo[1,2-a]pyrimidin-6-carboxamide], the figure is 0.051 to 0.1 µM; as for `O=C(NCc1ccc(-c2nc3cc(Cl)ccc3s2)cc1)c1cnc2nccn2c1` [Example 49, N-[[4-(5-chloro-1,3-benzothiazol-2-yl)phenyl]methyl]imidazo[1,2-a]pyrimidin-6-carboxamide], below 0.05 µM. Take `O=C(NCc1ccc(-c2nc3ccc(Cl)cc3s2)cc1)c1cnc2nccn2c1` [Example 50, N-[[4-(6-chloro-1,3-benzothiazol-2-yl)phenyl]methyl]imidazo[1,2-a]pyrimidin-6-carboxamide]: the concentration for half-maximal inhibition (IC50) fell in the range of 0.051 to 0.1 µM. Take `COc1ccc2sc(-c3ccc(CNC(=O)c4cnc5nccn5c4)cc3)nc2c1` [Example 51, N-[[4-(5-methoxy-1,3-benzothiazol-2-yl)phenyl]methyl]imidazo[1,2-a]pyrimidin-6-carboxamide]: the IC50 is below 0.05 µM. Regarding `COc1ccc2nc(-c3ccc(CNC(=O)c4cnc5nccn5c4)cc3)sc2c1` [Example 52, N-[[4-(6-methoxy-1,3-benzothiazol-2-yl)phenyl]methyl]imidazo[1,2-a]pyrimidin-6-carboxamide], the 50% inhibitory concentration (IC50) is below 0.05 µM. Turning to `O=C(NCc1ccc(-c2nc3cc(Oc4ccccc4)ccc3o2)cc1)c1cnc2nccn2c1` [Example 53, N-[[4-(5-phenoxy-1,3-benzoxazol-2-yl)phenyl]methyl]imidazo[1,2-a]pyrimidin-6-carboxamide], the 50% inhibitory concentration (IC50) is below 0.05 µM.
